Reference: PMC4641600, “Novel Activities of Select NSAID R-Enantiomers against Rac1 and Cdc42 GTPases” (PLoS ONE, 2015)
pIC50: −log10 of the molar value.

Legend:
Rac1 wt = Rac1 wt (Homo sapiens, UniProt P63000); assay: Dose response, BODIPY-GTP binding; settings: 10 nM to 100 µM
[1] = target: Rac1Q61L activating mutant (Homo sapiens, UniProt P63000, Q61L); assay: Dose response, BODIPY-GTP binding; settings: 10 nM to 100 µM
H-RasG12V = H-RasG12V (Homo sapiens, UniProt P01112, G12V); assay: Dose response, BODIPY-GTP binding; settings: 10 nM to 100 µM
Method: For multiplex analyses of small GTPases, 4 μm diameter glutathione-beads (GSH-beads) distinguished by seven different intensities of red fluorescence were used according to our previously described protocols. The GST-GTPases included the following eight Ras-related small GTPases: Rab2 wt, Rab7 wt, Cdc42 wt, Cdc42Q61L activating mutant, H-Ras wt, H-RasG12V, Rac1 wt and Rac1Q61L activating mutant. Briefly, Prestwick Chemical Library® compounds were tested at 10 μM compound and 1% DMSO final concentrations. After a 10 min pre-incubation with the compound BODIPY- FL-GTP (100 nM final) was added to each well and bead associated fluorescence was measured. Sample analysis was conducted with a HyperCyt® high throughput flow cytometry platform. Flow cytometric light scatter at 488 nm and fluorescence emission at 530 +/− 20 nm (FL1) and 665 +/− 10 nm (FL8) were collected on a Cyan ADP flow cytometer (Beckman Coulter, Fullerton, CA). IDLQuery software was used to determine the compound activity in each well. Gating based on forward scatter (FS) and side scatter (SS) parameters was used to identify singlet bead populations. Gating based on FL8 emission distinguishes the beads coated with different proteins, and the median FL1 fluorescence per bead population were calculated. A compound was considered a “potential active” if the change in BODIPY-FL-GTP binding differed greater than 20% from that measured in DMSO treated controls.
Test compounds identified for follow-up after the primary screen were tested at dilutions ranging from 10 nM to 100 μM final concentration against individual GTPases in multiplex and single-plex assays. Compounds tested in dose response assays were serially diluted 1:3 a total of eight times from a starting concentration of 10 mM giving a 9-point dilution series in DMSO.
bConfirmatory screens entailed dose response assays conducted in a multiplex format with eight GTPases tested as for primary screen. BODIPY-GTP-binding activity was
measured in the presence of 10 nM to 100 µM of each of 11 test compounds (4 primary screen hits and 7 additional NSAIDs considered to have chemical similarity to GTPase
active compounds). GST-GFP coated beads served as a control to detect non-specific dissociation or denaturation caused by compound addition–none of the tested NSAIDs had
any effect on bead-GST-protein binding. EC50 values were determined using Prism to determine dose response fits as shown in Figure 1 of main text; fits have R2 > 0.9. Active
compounds based on same definition used as in primary screena. […]
‡A well-characterized selective Cdc42 inhibitor served as a positive control.

Cdc42 = target: T1, Cdc42 (Mus musculus, UniProt P60766); assay: GLISA, Swiss 3T3 cells; type: cell-based; settings: Swiss-3T3; at 300 µM
T1 construct: endogenous in cells; host or cells: Swiss 3T3

human COX-1 = target: T2, human COX-1 (Homo sapiens, UniProt P23219); assay: Cyclooxygenase assay (CEREP), PGE2 formation; type: biochemical; settings: recombinant enzyme, 4 μM arachidonic acid
T2 construct: purchased CEREP Laboratories (contract assay); host or cells: Sf-9

human COX-2 = target: T3, human COX-2 (Homo sapiens, UniProt P35354); assay: Cyclooxygenase assay (CEREP), PGE2 formation; type: biochemical; settings: recombinant enzyme, 4 μM arachidonic acid
T3 construct: purchased CEREP Laboratories (contract assay); host or cells: Sf-9
T3 sequence (P35354 18-604): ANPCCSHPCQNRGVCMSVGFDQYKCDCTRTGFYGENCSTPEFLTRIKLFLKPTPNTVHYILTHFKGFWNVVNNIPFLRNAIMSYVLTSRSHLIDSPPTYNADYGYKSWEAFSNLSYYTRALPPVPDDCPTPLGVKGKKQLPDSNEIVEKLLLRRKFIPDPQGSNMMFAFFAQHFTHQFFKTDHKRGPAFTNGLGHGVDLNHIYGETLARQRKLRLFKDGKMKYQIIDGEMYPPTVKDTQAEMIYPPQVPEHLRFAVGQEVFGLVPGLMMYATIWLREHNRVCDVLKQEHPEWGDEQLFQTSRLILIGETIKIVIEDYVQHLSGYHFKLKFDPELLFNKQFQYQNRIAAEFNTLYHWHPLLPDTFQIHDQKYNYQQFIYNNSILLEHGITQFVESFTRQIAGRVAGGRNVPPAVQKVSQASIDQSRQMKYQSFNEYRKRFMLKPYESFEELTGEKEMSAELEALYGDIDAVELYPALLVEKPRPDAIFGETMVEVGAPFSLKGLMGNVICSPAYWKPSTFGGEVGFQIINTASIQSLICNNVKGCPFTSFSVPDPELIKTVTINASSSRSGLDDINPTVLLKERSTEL

T2 sequence (P23219 24-599): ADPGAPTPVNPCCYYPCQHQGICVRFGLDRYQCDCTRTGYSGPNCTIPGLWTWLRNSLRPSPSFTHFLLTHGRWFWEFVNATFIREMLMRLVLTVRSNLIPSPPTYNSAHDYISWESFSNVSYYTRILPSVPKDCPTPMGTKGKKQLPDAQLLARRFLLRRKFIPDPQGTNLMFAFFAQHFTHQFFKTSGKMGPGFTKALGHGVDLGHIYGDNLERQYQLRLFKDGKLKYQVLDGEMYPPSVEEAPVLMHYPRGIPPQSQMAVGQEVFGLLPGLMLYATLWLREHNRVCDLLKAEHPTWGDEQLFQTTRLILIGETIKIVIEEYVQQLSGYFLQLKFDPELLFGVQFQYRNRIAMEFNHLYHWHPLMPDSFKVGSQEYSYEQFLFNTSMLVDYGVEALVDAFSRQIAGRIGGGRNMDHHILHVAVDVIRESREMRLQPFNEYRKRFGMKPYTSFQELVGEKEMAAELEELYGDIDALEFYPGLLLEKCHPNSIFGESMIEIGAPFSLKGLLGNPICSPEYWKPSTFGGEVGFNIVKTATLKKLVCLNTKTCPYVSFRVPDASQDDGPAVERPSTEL
T1 sequence (P60766 whole entry): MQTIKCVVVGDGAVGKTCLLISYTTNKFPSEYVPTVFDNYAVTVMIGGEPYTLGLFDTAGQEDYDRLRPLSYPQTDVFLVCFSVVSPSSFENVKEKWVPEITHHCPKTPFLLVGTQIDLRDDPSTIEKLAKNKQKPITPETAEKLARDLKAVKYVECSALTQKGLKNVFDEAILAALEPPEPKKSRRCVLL

COc1ccc2cc(CC(=O)O)ccc2c1 [6-MNA, 6-methoxy-2-napthalene acetic acid]
Rac1 wt EC50 (Rac1 wt): inactive
Rac1 (act) EC50 [1]: inactive
H-Ras (act) EC50 (H-RasG12V): inactive
inhibition at 300 µM (Cdc42): 0%
pIC50 (human COX-1): 4.55
pIC50 (human COX-2): < 4.00
